Experimental data from ChEMBL document CHEMBL1287739, “A novel ring-expanded product with enhanced tyrosinase inhibitory activity from classical Fe-catalyzed oxidation of rosmarinic acid, a potent antioxidative Lamiaceae polyphenol” (Bioorg Med Chem Lett, 2010).

Assays:
[1] = target: T1, Tyrosinase (Agaricus bisporus) (UniProt O42713); test: Inhibition of mushroom tyrosinase at 0.10 mM
T1 sequence (whole entry): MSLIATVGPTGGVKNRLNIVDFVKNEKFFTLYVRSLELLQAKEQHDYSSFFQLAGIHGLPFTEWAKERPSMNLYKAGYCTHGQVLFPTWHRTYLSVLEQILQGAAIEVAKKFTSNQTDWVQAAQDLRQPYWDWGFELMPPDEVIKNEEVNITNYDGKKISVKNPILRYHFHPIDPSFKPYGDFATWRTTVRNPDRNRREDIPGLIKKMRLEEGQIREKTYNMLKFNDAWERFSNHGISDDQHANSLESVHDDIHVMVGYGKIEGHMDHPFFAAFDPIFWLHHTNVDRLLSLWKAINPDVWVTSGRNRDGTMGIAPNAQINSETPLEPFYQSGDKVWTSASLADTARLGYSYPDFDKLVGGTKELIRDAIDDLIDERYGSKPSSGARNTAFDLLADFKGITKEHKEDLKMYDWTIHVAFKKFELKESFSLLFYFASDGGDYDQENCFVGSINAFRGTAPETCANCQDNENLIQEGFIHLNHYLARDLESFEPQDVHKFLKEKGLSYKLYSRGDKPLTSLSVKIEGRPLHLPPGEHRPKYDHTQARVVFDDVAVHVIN

Tyrosinase = target: T2, Tyrosinase (Agaricus bisporus, UniProt O42713); test: Inhibition of mushroom tyrosinase
T2 sequence (O42713 whole entry): T1 sequence (whole entry)

[2] = target: T1, Tyrosinase (Agaricus bisporus); test: Inhibition of mushroom tyrosinase at 3.00 mM
[3] = target: T1, Tyrosinase (Agaricus bisporus); test: Inhibition of mushroom tyrosinase at 1.00 mM
[4] = target: T1, Tyrosinase (Agaricus bisporus); test: Inhibition of mushroom tyrosinase at 10.0 mM

| inhibition [1] | IC50 (Tyrosinase) | inhibition [2] | inhibition [3] | inhibition [4] | SMILES |
| --- | --- | --- | --- | --- | --- |
| 52.5% | 80 µM |  |  |  | CCOc1cc(=O)c(C[C@@H](OC(=O)/C=C/c2ccc(O)c(O)c2)C(=O)O)coc1=O |
|  | 250 µM | 69.8% | 40.7% | 93.6% | O=C(/C=C/c1ccc(O)c(O)c1)O[C@H](Cc1ccc(O)c(O)c1)C(=O)O [ROSMARINIC ACID] |
